According to article PMC6904568, “Evaluation of binding and inhibition mechanism of dietary phytochemicals with sphingosine kinase 1: Towards targeted anticancer therapy” (Scientific Reports, 2019):
Where “and” joins values, the source holds several entries; their conditions need not be identical. Equal entries are not always repeated.

Assays:
SphK1 [1] = biological target: T1, SphK1 (Homo sapiens, UniProt Q9NYA1); test: ATPase inhibition assay (malachite green, BIOMOL Green); assay type: biochemical; conditions: 2 µM SphK1, 150 µM ATP, 25 °C; read-out: IC50 (50% of ATPase inhibition)
T1 construct: His tag; made in house; host or cells: E. coli BL21-Gold (DE3)
T1 sequence (Q9NYA1 whole entry): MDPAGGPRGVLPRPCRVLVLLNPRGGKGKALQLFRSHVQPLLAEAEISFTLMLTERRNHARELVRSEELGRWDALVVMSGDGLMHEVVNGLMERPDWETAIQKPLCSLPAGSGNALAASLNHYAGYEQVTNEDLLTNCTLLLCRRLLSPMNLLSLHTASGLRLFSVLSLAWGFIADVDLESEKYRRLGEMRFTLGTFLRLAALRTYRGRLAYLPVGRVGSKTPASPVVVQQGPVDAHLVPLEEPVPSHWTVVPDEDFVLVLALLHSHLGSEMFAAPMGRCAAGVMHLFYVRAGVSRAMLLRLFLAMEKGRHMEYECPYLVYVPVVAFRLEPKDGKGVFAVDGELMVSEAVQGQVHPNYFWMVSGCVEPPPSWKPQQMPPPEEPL
Method: ATPase activity of purified SphK1 was checked by malachite green-based (BIOMOL® Green reagent, Enzo Life sciences) microtitre-plate assay. Fixed (2 µM) amount of protein was incubated with assay buffer (20 mM Tris-HCl, pH 8.0 and 100 mM NaCl) containing 10 mM MgCl2 and increasing concentrations of ATP for 30 minutes at 25 °C. The reaction was terminated by the addition of malachite green reagent followed by incubation for 20 minutes for colour development. The absorbance of each well was measured at 620 nm on a multiplate ELISA reader. Standard phosphate curve was prepared as described by manufacturer’s protocol and used to quantity the amount of free inorganic released from ATP by kinase activity. Thereafter, ATPase inhibition assay for SphK1 was performed in the presence of compounds. Firstly, Protein (2 µM) was pre-incubated with increasing concentrations of ligand at room temperature for 60 minutes in 96-well plate. 10 mM MgCl2 and 150 µM freshly prepared ATP was then added to the reaction mixture and incubated for 30 minutes at 25 °C. To terminate the reaction, BIOMOL® reagent was added and incubated for 20 minutes followed by absorbance measurement at 620 nm. The amount of free inorganic released was determined with the help of standard phosphate curve as described. All the measurements were performed in triplicates.

SphK1 [2] = biological target: T1, SphK1; test: Isothermal titration calorimetry; assay type: binding
Method: Binding affinity of SphK1 to quercetin was determined by using VP-ITC microcalorimeter from MicroCal, Inc (GE, MicroCal, USA). Protein sample was prepared by extensively dialyzing it against Tris buffer (20 mM Tris-HCl, pH 8.0 and 100 mM NaCl). Stock solution of compound was diluted in the last dialyzing buffer to avoid any baseline error. Equal amount of DMSO (1.0% v/v) was added to the protein solution to prevent signal stability problems during ITC measurements. 15 µM SphK1, which was kept in the sample cell with an effective volume of 2 ml, was titrated with 750 µM of compound filled in the titration calorimetry syringe. A programmed titration was performed with a first false injection of 2 µl followed by 24 successive injections of 10 µl ligand each at 300 seconds interval. The temperature of the sample and reference cell was isothermally maintained at 25 °C, and the syringe was stirred at 307 rpm during the experiment. Heat of dilution of compound into buffer solution (no protein) was also measured and subtracted from the protein’s titration data. The binding isotherm obtained was fitted with in-built origin ‘binding site’ model to derive the thermodynamic parameters viz., stoichiometry of binding (n), enthalpy change (ΔH) and association constant (Ka).

SphK1 [3] = biological target: T1, SphK1; test: Fluorescence binding studies (Trp quenching, modified Stern-Volmer); conditions: for Binding constant Ka: fluorescence quenching, 25 °C, 4 µM SphK1; for Kd: from fluorescence binding constant, read-out: Dissociation constant KD
Method: Fluorescence quenching experiments were carried out on Jasco spectroflourimeter (FP-6200) using 5 mm quartz cuvette. The temperature was maintained at 25 ± 0.1 °C by external thermostated peltier device. Stock solution of ligands was prepared in DMSO and diluted to a working concentration of 50 µM in Tris buffer just prior to taking measurements. Protein solution (4 µM) was titrated with increasing concentrations of ligand and the fluorescence emission spectrum was recorded in the range of 300–400 nm by keeping the excitation wavelength constant at 280 nm. The excitation and emission slit widths were kept at 10 nm. The final spectra were obtained by subtracting with the corresponding blank. For data analysis, fluorescence intensity at λmax was plotted against [ligand, μM] and then modified Stern-Volmer equation (Eq. 1) was used to derive binding parameters viz., binding constant (Ka) and number of binding sites (n) per molecule of protein for ligand-SphK1 system.1 log(F0−F/F)=logKa+nlog[Q]
To validate our docking results, the binding affinity of selected natural compounds with SphK1 was calculated using fluorescence measurements. A number of molecular interactions, including formation of an excited charge-transfer complex, intersystem crossing to the triplet state, molecular rearrangements, and ground-state complex formation between the fluorophore and quencher can lead fluorescence quenching. […] 4 µM of SphK1 was titrated by the successive addition of selected natural compounds from a 1.0 mM stock solution of ligands. The intrinsic fluorescence spectra were then collected in the range of 300–400 nm by keeping the excitation wavelength at 280 nm. The concentration of ligands was varied from 0 to 50 µM to obtain the saturation point.

HepG2 cells = test: Anti-proliferative potential on liver cancer line; assay type: cell-based; conditions: Homo sapiens, data not shown, read-out: IC50, growth inhibition of cancer cells
A549 cells = test: Anti-proliferative potential on lung cancer line; assay type: cell-based; conditions: Homo sapiens, data not shown, read-out: IC50, growth inhibition of cancer cells
[4] = ITC, 25 °C, single binding site model
[5] = ITC, 25 °C, sequential binding, site 1
[6] = ITC, 25 °C, sequential binding, site 2
[7] = ITC, 25 °C, sequential binding, site 3

In the case of COc1cc(CNC(=O)CCCC/C=C/C(C)C)ccc1O [Capsaicin, capsaicin], the IC50 (SphK1 [1]) is reported as ~27 µM and 27 µM, the “Association constant Ka” value (SphK1 [2]; [4]) is reported as 102000 ± 66200 M⁻¹ and the “Enthalpy Change ΔH” value (SphK1 [2]; [4]) is reported as −1.00 × 10^4 ± 727.6 cal/mol. The ΔS (SphK1 [2]; [4]) was −10.8 cal/mol/deg, the Kd (SphK1 [2]; ITC, 25 °C, single binding site model, read-out: Dissociation Constant KD) was 9.8 µM and the “Binding constant Ka” value (SphK1 [3]) was 15300 M⁻¹. The Kd (SphK1 [3]) was 65.4 µM.
O=c1c(O)c(-c2ccc(O)c(O)c2)oc2cc(O)cc(O)c12 [Quercetin, quercetin] was tested, and the IC50 (SphK1 [1]) was roughly 2.8 µM, the IC50 (HepG2 cells) was 49.1 µM and the Kd (SphK1 [2]) was 125 µM. The “Association constant Ka1” value (SphK1 [2]; [5]) was “Ka1 = 5.89 × 10^4 ± 5.0 × 10^3 M^−1”, the “Enthalpy Change ΔH1” value (SphK1 [2]; [5]) was “ΔH1 = −5204 ± 435 cal/mol” and the ΔS1 (SphK1 [2]; [5]) was “ΔS1 = 4.37 cal/mol/deg”. The Kd (SphK1 [2]; ITC, 25 °C, sequential binding, site 1, read-out: Dissociation Constant KD1) was 16.9 µM, the “Association constant Ka2” value (SphK1 [2]; [6]) was “Ka2 = 2.36 × 10^5 ± 8.0 × 10^3 M^−1” and the “Enthalpy Change ΔH2” value (SphK1 [2]; [6]) was “ΔH2 = −9883 ± 696 cal/mol”. For the same compound, the ΔS2 (SphK1 [2]; [6]) was “ΔS2 = −8.57 cal/mol/deg”, the Kd (SphK1 [2]; ITC, 25 °C, sequential binding, site 2, read-out: Dissociation Constant KD2) was 4.2 µM and the “Association constant Ka3” value (SphK1 [2]; [7]) was “Ka3 = 1.06 × 10^4 ± 4.0 × 10^2 M^−1”. For the same compound, the “Enthalpy Change ΔH3” value (SphK1 [2]; [7]) was “ΔH3 = 3829 ± 2.18 × 10^3 cal/mol”, the ΔS3 (SphK1 [2]; [7]) was “ΔS3 = 32.3 cal/mol/deg” and the Kd (SphK1 [2]; ITC, 25 °C, sequential binding, site 3, read-out: Dissociation Constant KD3) was 94.3 µM. The ΔS4 (SphK1 [2]; ITC, 25 °C, sequential binding, site 4) was “ΔS4 = −294 cal/mol/deg”, the Kd (SphK1 [2]; ITC, 25 °C, sequential binding, site 4, read-out: Dissociation Constant KD4) was 10.7 µM and the “Toxicity towards normal counterparts” value (HEK293 cells) was “did not impart any toxicity”. For the same compound, the IC50 (A549 cells) was 55.9 µM, the “Binding constant Ka” value (SphK1 [3]) was 438000 M⁻¹ and the Kd (SphK1 [3]) was 2.28 µM.
